For assay [1], the system named is genotype 1a stable HCV replicon (H77 strain) in Huh-7-derived cells. Briefly: Stable subgenomic HCV replicon EC50, genotype 1a (Renilla luciferase). The class given is cell-based. The settings on record: Hepatitis C virus, stable replicon genotype 1a, 72 h, read-out: EC50 1A RLUC. How it is done:
(§1) Antiviral potency (EC50) was determined in both stable subgenomic HCV replicon cell lines and transient-transfected HCV replicon cells. The term half maximal effective concentration (EC50) refers to the concentration of a drug which induces a response halfway between the baseline and maximum after the exposure time specified below.
(§2) Stable subgenomic HCV replicons for genotype 1a, 1 b, 2a, 3a, and 4a were established in Huh-7-derived cells as described by Lohmann et al (Lohmann V, Korner F, Koch J, et al Replication of subgenomic hepatitis C virus RNAs in a hepatoma cell line. Science 1999; 285:119-3). Each stable cell line contains a bicistronic HCV replicon that encodes a humanized Renilla luciferase (hRLuc) reporter gene fused to a selectable neomycin-resistance gene, followed by an EMCV IRES and the NS3-NS5B coding region of HCV. […] Luciferase activity was measured as a marker for intracellular HCV replication levels.
(§3) The genotype 1a stable replicon was derived from the H77 HCV strain and contained adaptive mutations P1496L and S2204I. The genotype 1 b stable replicon was derived from the Cont HCV strain and contained adaptive mutations E1202G, T1280I, and K1846T. […] The genotype 3a stable replicon was derived from the S52 HCV strain and contained adaptive mutations P1121 L, A1198T and S2210I (equivalent to S2204I in genotype 1). The genotype 4a stable replicon was derived from the ED43 HCV strain and contained adaptive mutations Q1691R and S2204I. All replicon cell lines were propagated in Huh-7-derived cells and maintained in Dulbecco's modified Eagle's Medium (DMEM) supplemented with 10% fetal bovine serum (FBS) and 0.5 mg/mL G418.
(§4) To perform EC50 assays, cells from each HCV replicon were dispensed into 384-well plates. Compounds were dissolved in DMSO at a concentration of 10 mM and diluted in DMSO using an automated pipetting instrument. Three-fold serially diluted compounds were directly added to the cells using an automated instrument. […] Seventy-two hours later, cells were lysed and Renilla luciferase activity were quantified as recommended by the manufacturer (Promega-Madison, Wis.). Non-linear regression was performed to calculate EC50 values.

Assay [2] relates to genotype 1b stable HCV replicon in Huh-7-derived cells. Briefly: Stable subgenomic HCV replicon EC50, genotype 1b (Renilla luciferase). It counts as cell-based. The settings on record: Hepatitis C virus, stable replicon genotype 1b, 72 h, read-out: EC50 1B RLUC. How it is done:
as §1, §2, §3, §4

In assay [3] the test system is genotype 1a (H77) wild-type transient HCV replicon in Huh-7-derived cells. Kind of assay: Transient-transfected HCV replicon EC50, genotype 1a wild type. It counts as cell-based. The settings on record: Hepatitis C virus; transient-transfected replicon genotype 1a wild type, 72 h; read-out: EC50 1A WT.
In assay [4] the test system is genotype 2a stable HCV replicon (JFH-1 strain) in Huh-7-derived cells. Briefly: Stable subgenomic HCV replicon EC50, genotype 2a (Renilla luciferase). It counts as cell-based. The settings on record: Hepatitis C virus, stable replicon genotype 2a, 72 h, read-out: EC50 2A RLUC. As to the method: as §1, §2, §3, §4
The test system of assay [5] is genotype 1a transient HCV replicon, NS3/4a protease inhibitor resistant variant R155K, in Huh-7-derived cells. Briefly: Transient-transfected HCV replicon EC50, genotype 1a R155K. It counts as cell-based. The settings on record: Hepatitis C virus, 72 h, read-out: EC50 1A R155K.
In assay [6] the test system is genotype 1b (Con1) wild-type transient HCV replicon in Huh-7-derived cells. Briefly: Transient-transfected HCV replicon EC50, genotype 1b wild type. It counts as cell-based. The settings on record: Hepatitis C virus; transient-transfected replicon genotype 1b wild type, 72 h; read-out: EC50 1B WT.
Assay [7] relates to genotype 3a transient HCV replicon (S52 strain) in Huh-7-derived cells. Briefly: Transient-transfected HCV replicon EC50, genotype 3a wild type. The settings on record: Hepatitis C virus; transient-transfected replicon genotype 3a wild type, 72 h; read-out: EC50 3A WT. It counts as cell-based.
Assay [8] deals with genotype 4a stable HCV replicon (ED43 strain) in Huh-7-derived cells. Kind of assay: Stable subgenomic HCV replicon EC50, genotype 4a (Renilla luciferase). It counts as cell-based. The settings on record: Hepatitis C virus, 72 h, read-out: EC50 4A RLUC. How it is done:
as §1, §2, §3, §4

The test system of assay [9] is genotype 1b transient HCV replicon, NS3/4a protease inhibitor resistant variant D168A, in Huh-7-derived cells. Kind of assay: Transient-transfected HCV replicon EC50, genotype 1b D168A. It counts as cell-based. The settings on record: Hepatitis C virus, 72 h, read-out: EC50 1B D168A.
Another assay addresses T1, NS3 genotype 1b protease (Hepatitis C virus genotype 1b, UniProt Q9WMX2, E1202G).
T1 construct: Purified NS3 protease domain (amino acids 1-181) of the genotype 1b and 3a virus were generated as above; K3 hexahistidine tag (N); rTEV protease cleavage site (N); made in house; host or cells: E. coli BL21AI, pET28 vector p28-N6H-Tev-NS3(181)1b
Briefly: Ki determination, NS3 protease genotype 1b (fluorogenic depsipeptide substrate). It counts as biochemical. From the text:
The coding sequence of the genotype 1b (con-1 strain) HCV NS3 protease domain was PCR amplified from a plasmid encoding the I389luc-ubi-neo/NS3-3′/ET replicon (Reblikon, Mainz, Germany). The 5′-PCR primer was designed to encode an N-terminal K3 hexahistidine tag and to insert an in-frame recombinant Tobacco Etch virus (rTEV) protease cleavage site into the NS3 coding sequence. The resulting DNA fragment was cloned into the pET28 protein expression vector (Invitrogen, Carlsbad, Calif.) yielding the p28-N6H-Tev-NS3(181)1b.
BL21AI bacteria (Invitrogen, Carlsbad, Calif.) were transformed with genotype 1b or 3 NS3 expression vectors and used to inoculate a 20 L fermentation vessel (Sartorius BBI System Inc., Bethlehem, Pa.), containing 18 L of fresh 2YT medium supplemented with 50 μg/mL kanamycin. When cell densities reached an OD600 of 1, the temperature of the cultures was reduced from 37° C. to 28° C. and induction was immediately initiated by the addition of 30 μM ZnSO4, 14 mM L-arabinose and 1 mM Isopropyl β-D-thiogalactoside (IPTG) final concentrations. Cells were harvested by centrifugation four hours post-induction and were stored as frozen pellets at −80° C. prior to NS3 protein purification.
Cell pellets were thawed and resuspended at 10 mL/g cells in lysis buffer containing 50 mM tris pH 7.6, 300 mM NaCl, 0.1% 3-[(3-cholamidopropyl)dimethylammonio]-1-propanesulfonate (CHAPS), 5% glycerol, and 2 mM β-mercaptoethanol. Cell suspensions were then sonicated, filtered through cheesecloth, and passed three times through a microfluidizer at 18,000 pounds/in^2. The resulting lysates were centrifuged at 15500 rpm for 45 minutes and supernatants were loaded onto a HisTrap HP column (GE Lifesciences) pre-equilibrated with five volumes of Ni buffer A (50 mM tris pH 7.6, 300 mM NaCl, 0.1% CHAPS, 5% glycerol, 2 mM β-mercaptoethanol, 50 mM imidazole-HCl). Proteins were eluted with a 0-100% gradient of Ni buffer A plus 500 mM imidazole-HCl and fractions were collected and pooled. The HisTrap pool was diluted 1:10 with SP-A buffer (50 mM tris pH 7.0, 10% glycerol, 2 mM dithiothreitol (DTT)) and loaded onto a HiTrap SP-HP column (GE Lifesciences) equilibrated with SP-A buffer. NS3 protease was eluted with a 0-100% SP-B buffer (SP-A buffer plus 1 M NaCl) gradient. Concentrated pools of NS3-containing SP fractions were aliquoted, snap frozen in liquid nitrogen and stored at −80° C.
Purified NS3 protease domain (amino acids 1-181) of the genotype 1b and 3a virus were generated as above.
Reactions were run at room temperature in buffer consisting of 50 mM HEPES, 40% glycerol, 0.05% Triton X-100, 10 mM DTT, and 10% DMSO. The final assay solutions contained 50 pM NS3 genotype 1b protease or 200 pM genotype 3a protease, 20 μM NS4A peptide, and 4 μM substrate (genotype 1 b) or 2 μM substrate (genotype 3a). Inhibitor concentrations varied from 100 nM to 5 pM in 3-fold dilutions, and no-inhibitor controls were included.
Compound dilutions were made in DMSO at 20× final concentration. Reaction mixtures were prepared in 96-well assay plates. A solution of enzyme and NS4A peptide in assay buffer (25 μL volume with both reagents at 4× final concentration) was mixed with 45 μL assay buffer and 5 μL of either inhibitor or DMSO, and pre-incubated at room temperature for 1 hour. The reaction was started by addition of 25 μL substrate solution at 4× final concentration. Plates were mixed vigorously for 5-10 seconds and reactions were allowed to proceed for 90 minutes. fluorescence was measured every 30 s between 90 and 120 minutes reaction time using a Tecan InfiniTe M1000 or PerkinElmer Envision multimode plate reader with an excitation wavelength of 340 nm and an emission wavelength of 490 nm.
To determine the K, rates were plotted as a function of inhibitor concentration, and the data were fit with equation 1 (Morrison, J. F., Biochimica et Biophysica Acta 1969, 185, 269-286) to calculate Ki^app using GraphPad Prism 5.

Assay [10] has as its system genotype 3a stable HCV replicon (S52 strain) in Huh-7-derived cells. Briefly: Stable subgenomic HCV replicon EC50, genotype 3a (Renilla luciferase). It counts as cell-based. The settings on record: Hepatitis C virus, 72 h, read-out: EC50 3A RLUC. How it is done: as §1, §2, §3, §4

SMILES strings stand for the structures.

The text below walks through data of US20150175655A1 (priority 2012, published 2015).

As to `C=C[C@@H]1C[C@]1(NC(=O)[C@@H]1[C@H](CC)[C@@H]2CN1C(=O)[C@H](C(C)(C)C)NC(=O)O[C@@H]1C[C@H]1CCCCC(F)(F)c1nc3ccc(OC)cc3nc1O2)C(=O)NS(=O)(=O)C1CC1` [Example 92, (1aR,5S,8S,9S,10R,22aR)-5-tert-butyl-N-{(1R,2S)-1-[(cyclopropylsulfonyl)carbamoyl]-2-ethenylcyclopropyl}-9-ethyl-18,18-difluoro-14-methoxy-3,6-dioxo-1,1a,3,4,5,6,9,10,18,19,20,21,22,22a-tetradecahydro-8H-7,10-methanocyclopropa[18,19][1,10,3,6]dioxadiazacyclononadecino[11,12-b]quinoxaline-8-carboxamide], the EC50 in [1] is 3.3 nM; in assay [2], 3.2 nM; in assay [3], 3 nM; in [4], 4.6 nM; in assay [5], 3 nM; in assay [6] it was 1.7 nM. For the same molecule, in assay [7], the EC50 amounted to 8 nM.

Regarding `COc1ccc2nc3c(nc2c1)O[C@H]1CN(C(=O)[C@H](C(C)(C)C)NC(=O)O[C@@H]2C[C@H]2CCCCC3)[C@H](C(=O)N[C@]2(C(=O)NS(=O)(=O)C3(C)CC3)C[C@H]2C(F)F)[C@@H]1C1CC1` [Example 31, (1aR,5S,8S,9S,10R,22aR)-5-tert-butyl-9-cyclopropyl-N-[(1R,2R)-2-(difluoromethyl)-1-{[(1-methylcyclopropyl)sulfonyl]carbamoyl}cyclopropyl]-14-methoxy-3,6-dioxo-1,1a,3,4,5,6,9,10,18,19,20,21,22,22a-tetradecahydro-8H-7,10-methanocyclopropa[18,19][1,10,3,6]dioxadiazacyclononadecino[11,12-b]quinoxaline-8-carboxamide], the EC50 in assay [1] was found to be 40 nM; in assay [2] it was 18 nM; in [8], 20 nM; in assay [9], 805 nM; in assay [3], 27 nM; in assay [4] it was 63 nM. Further, the EC50 in assay [5] came out at 154 nM; in assay [6] it was 6.6 nM; in assay [10], 2070 nM. Besides, the affinity at NS3 genotype 1b protease corresponds to a Ki of 0.13 nM.

As to `CC[C@@H]1[C@@H]2CN(C(=O)[C@H](C(C)(C)C)NC(=O)O[C@@H]3C[C@H]3CC/C=C/C(F)(F)c3nc4ccc(OC)cc4nc3O2)[C@@H]1C(=O)N[C@]1(C(=O)NS(=O)(=O)C2(C)CC2)C[C@H]1C(F)F` [Example 89, (1aR,5S,8S,9S,10R,19E,22aR)-5-tert-butyl-N-[(1R,2R)-2-(difluoromethyl)-1-{[(1-methylcyclopropyl)sulfonyl]carbamoyl}cyclopropyl]-9-ethyl-18,18-difluoro-14-methoxy-3,6-dioxo-1,1a,3,4,5,6,9,10,18,21,22,22a-dodecahydro-8H-7,10-methanocyclopropa[18,19][1,10,3,6]dioxadiazacyclononadecino[11,12-b]quinoxaline-8-carboxamide], the EC50 in assay [1] was found to be 6 nM; in assay [2], 6.1 nM; in assay [8], 4.6 nM; in assay [9], 5.1 nM; in [3] it was 6 nM; in assay [4], 4.3 nM. Also, the EC50 in assay [5] was determined as 3.7 nM; in [6], 3.2 nM; in [7] it was 5.5 nM; in assay [10], 19 nM.
